# Assay results as given in patent US7910751B2, “Heterocyclidene acetamide derivative” (Mochida Pharmaceutical Co., Ltd., priority 2005, dated 2011).
# Target: T1, human TRPV1 (Homo sapiens, UniProt Q8NER1)
# T1 construct: expressed in transfected cells; host or cells: CHO-K1
# Experiment: Measurement of capsaicin-induced Ca influx in human TRPV1 transformed CHO cell line using FDSS-6000
# Assay type: cell-based
# Settings: concentration at which the capsaicin concentration-reaction curve is shifted two times to the right, human TRPV1 transformed CHO cells
# T1 sequence (Q8NER1 whole entry): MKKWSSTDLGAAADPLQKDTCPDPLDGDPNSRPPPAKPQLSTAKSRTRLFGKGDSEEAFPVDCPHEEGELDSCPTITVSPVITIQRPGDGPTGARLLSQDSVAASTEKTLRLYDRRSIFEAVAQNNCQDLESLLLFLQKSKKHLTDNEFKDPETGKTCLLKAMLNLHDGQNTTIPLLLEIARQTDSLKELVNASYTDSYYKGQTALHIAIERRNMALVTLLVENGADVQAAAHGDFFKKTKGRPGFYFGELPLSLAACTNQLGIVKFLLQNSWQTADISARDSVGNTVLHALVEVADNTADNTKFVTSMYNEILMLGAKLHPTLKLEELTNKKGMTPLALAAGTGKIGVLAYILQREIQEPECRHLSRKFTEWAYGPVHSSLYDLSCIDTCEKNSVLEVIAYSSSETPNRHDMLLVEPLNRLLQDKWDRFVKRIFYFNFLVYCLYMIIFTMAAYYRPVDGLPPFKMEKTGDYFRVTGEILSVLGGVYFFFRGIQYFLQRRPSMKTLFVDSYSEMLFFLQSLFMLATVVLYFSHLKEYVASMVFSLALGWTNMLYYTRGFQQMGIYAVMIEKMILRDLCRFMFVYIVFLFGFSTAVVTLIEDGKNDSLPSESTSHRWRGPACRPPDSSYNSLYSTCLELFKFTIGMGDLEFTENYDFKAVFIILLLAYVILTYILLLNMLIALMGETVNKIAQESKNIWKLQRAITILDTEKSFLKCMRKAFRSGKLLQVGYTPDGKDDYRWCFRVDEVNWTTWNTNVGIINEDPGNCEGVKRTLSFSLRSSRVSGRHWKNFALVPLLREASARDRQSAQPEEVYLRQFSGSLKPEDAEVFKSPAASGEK
row,Structure (SMILES),A2 VALUE
1,"CCC(F)(F)C(=O)N1CC/C(=C\C(=O)Nc2cccc3c2CC(O)CN3)c2ccc(C(F)(F)F)cc21 (centres unmarked) [Example 184, (E)-2-(1-(2,2-difluorobutanoyl)-7-trifluoromethyl-2,3-dihydroquinolin-4(1H)-ylidene)-N-(3-hydroxy-1,2,3,4-tetrahydroquinolin-5-yl)acetamide]",A (compounds of the present invention having an A2 value of less than 100 nM are represented by A)
2,"Cc1cc(NC(=O)/C=C2\CCCOc3cc(C(F)(F)F)ccc32)n(C(C)(C)C)n1 [Example 46, (E)-N-(1-tert-butyl-3-methyl-1H-pyrazolo-5-yl)-2-(8-trifluoromethyl-3,4-dihydrobenzo[b]oxepin-5(2H)-ylidene)acetamide]",B (compounds having an A2 value of 100 nM or more are represented by B)
3,"O=C(/C=C1\CCCOc2cc(C(F)(F)F)ccc21)Nc1cccc2c1CC(O)CC2 (centres unmarked) [Example 64, (E)-2-(8-trifluoromethyl-3,4-dihydrobenzo[b]oxepin-5-(2H)-ylidene)-N-(7-hydroxy-5,6,7,8-tetrahydronaphthalen-1-yl)acetamide]",A (compounds of the present invention having an A2 value of less than 100 nM are represented by A)
4,"CC1(C)C/C(=C\C(=O)Nc2cccc3c2CC(O)CC3)c2ccc(C(F)(F)F)cc2O1 (centres unmarked) [Example 242, (E)-2-(7-trifluoromethyl-2,2-dimethylchroman-4-ylidene)-N-(7-hydroxy-5,6,7,8-tetrahydronaphthalen-1-yl)acetamide]",A (compounds of the present invention having an A2 value of less than 100 nM are represented by A)
5,"O=C(/C=C1\CCOc2cc(OC(F)(F)C(F)F)ccc21)Nc1cccc2c1CC(O)CC2 (centres unmarked) [Example 212, (E)-2-(7-(1,1,2,2-tetrafluoroethoxy)-chroman-4-ylidene)-N-(7-hydroxy-5,6,7,8-tetrahydronaphthalen-1-yl)acetamide]",A (compounds of the present invention having an A2 value of less than 100 nM are represented by A)
6,"O=C(/C=C1\CCCN(C(=O)C2CCCC2)c2cc(C(F)(F)F)ccc21)Nc1ccc2cccnc2c1 [Example 193, (E)-2-(1-cyclopentanecarbonyl-8-trifluoromethyl-1,2,3,4-tetrahydro-5H-benzo[b]azepin-5-ylidene)-N-(quinolin-7-yl)acetamide]",A (compounds of the present invention having an A2 value of less than 100 nM are represented by A)
7,"O=C(/C=C1\CCN(C(=O)C2CC(F)(F)C2)c2cc(C(F)(F)F)ccc21)Nc1cccc2c1CC(O)CC2 (centres unmarked) [Example 118, (E)-2-(1-(3,3-difluorocyclobutanecarbonyl)-7-trifluoromethyl-2,3-dihydroquinolin-4(1H)-ylidene)-N-(7-hydroxy-5,6,7,8-tetrahydronaphthalen-1-yl)acetamide]",A (compounds of the present invention having an A2 value of less than 100 nM are represented by A)
8,"CCC(C)CC(=O)N1CC/C(=C\C(=O)Nc2ccc3cccnc3c2)c2ccc(C(F)(F)F)cc21 (centres unmarked) [Example 79, (E)-2-(1-(3-methylpentanoyl)-7-trifluoromethyl-2,3-dihydroquinolin-4(1H)-ylidene)-N-(quinolin-7-yl)acetamide]",A (compounds of the present invention having an A2 value of less than 100 nM are represented by A)
9,"CC(C)c1ccc2c(c1)OCC/C2=C\C(=O)Nc1cccc2c1CC(O)CN2 (centres unmarked) [Example 207, (E)-2-(7-isopropyl-chroman-4-ylidene)-N-(3-hydroxy-1,2,3,4-tetrahydroquinolin-5-yl)acetamide]",A (compounds of the present invention having an A2 value of less than 100 nM are represented by A)
10,"CC(C)(C)c1ccc(NC(=O)/C=C2\CCCOc3cc(C(F)(F)F)ccc32)cc1 [Example 14, (E)-N-(4-tert-butylphenyl)-2-(8-trifluoromethyl-3,4-dihydrobenzo[b]oxepin-5(2H)-ylidene)acetamide]",A (compounds of the present invention having an A2 value of less than 100 nM are represented by A)
11,"O=C(/C=C1\CCN(c2ccc(Cl)cc2)c2cc(C(F)(F)F)ccc21)NC1CCc2cccnc2C1 (centres unmarked) [Example 56, (E)-2-(1-(4-chlorophenyl)-7-trifluoromethyl-2,3-dihydro-4(1H)-ylidene)-N-(5,6,7,8-tetrahydroquinolin-7-yl)acetamide]",A (compounds of the present invention having an A2 value of less than 100 nM are represented by A)
12,"O=C(/C=C1\CCCOc2cc(C(F)(F)F)ccc21)Nc1cccc(-c2cnc3ccccc3n2)c1 [Example 28, (E)-2-(8-trifluoromethyl-3,4-dihydrobenzo[b]oxepin-5(2H)-ylidene)-N-(3-(quinoxalin-2-yl)phenyl)acetamide]",B (compounds having an A2 value of 100 nM or more are represented by B)
13,"O=C(/C=C1\CCCOc2cc(C(F)(F)F)ccc21)NC1CCc2cccnc2C1 (centres unmarked) [Example 10, (E)-2-(8-trifluoromethyl-3,4-dihydrobenzo[b]oxepin-5(2H)-ylidene)-N-(5,6,7,8-tetrahydroquinolin-7-yl)acetamide]",A (compounds of the present invention having an A2 value of less than 100 nM are represented by A)
14,"O=C(/C=C1\CCCOc2cc(C(F)(F)F)ccc21)Nc1cccnc1N1CCOCC1 [Example 20, (E)-2-(8-trifluoromethyl-3,4-dihydrobenzo[b]oxepin-5(2H)-ylidene)-N-(2-morpholinopyridin-3-yl)acetamide]",B (compounds having an A2 value of 100 nM or more are represented by B)
15,"CCCCC(=O)N1CC/C(=C\C(=O)Nc2cccc3c2CC(O)C(=O)N3)c2ccc(C(F)(F)F)cc21 (centres unmarked) [Example 107, (E)-2-(7-trifluoromethyl-2,3-dihydro-1-pentanoylquinolin-4(1H)-ylidene)-N-(3,4-dihydro-3-hydroxy(1H)quinolin-2-on-5-yl)acetamide]",A (compounds of the present invention having an A2 value of less than 100 nM are represented by A)
16,"CC1(C)CC1C(=O)N1CC/C(=C\C(=O)Nc2cccc3c2CC(O)CC3)c2ccc(C(F)(F)F)cc21 (centres unmarked) [Example 109, (E)-2-(7-trifluoromethyl-2,3-dihydro-1-((2,2-dimethylcyclopropane)carbonyl)quinolin-4(1H)-ylidene)-N-(7-hydroxy-5,6,7,8-tetrahydronaphthalen-1-yl)acetamide]",A (compounds of the present invention having an A2 value of less than 100 nM are represented by A)
17,"O=C(/C=C1\CCCOc2cc(C(F)(F)F)ccc21)Nc1ccc2c(c1)C(=O)CCC2 [Example 23, (E)-2-(8-trifluoromethyl-3,4-dihydrobenzo[b]oxepin-5(2H)-ylidene)-N-(1,2,3,4-tetrahydro-1-oxonaphthalen-7-yl)acetamide]",A (compounds of the present invention having an A2 value of less than 100 nM are represented by A)
18,"O=C(/C=C1\CCOc2cc(OC(F)(F)F)ccc21)Nc1cccc2c1CC(O)CN2 (centres unmarked) [Example 211, (E)-2-(7-trifluoromethoxy-chroman-4-ylidene)-N-(3-hydroxy-1,2,3,4-tetrahydroquinolin-5-yl)acetamide]",A (compounds of the present invention having an A2 value of less than 100 nM are represented by A)
19,"CC(C)(C)c1ccc2c(c1)OCC/C2=C\C(=O)Nc1ccc2cccnc2c1 [Example 5, (E)-2-(7-tert-butyl-chroman-4-ylidene)-N-(quinolin-7-yl)acetamide]",A (compounds of the present invention having an A2 value of less than 100 nM are represented by A)
20,"O=C(/C=C1\CCCOc2cc(C(F)(F)F)ccc21)NC1CCCc2cccnc2C1 (centres unmarked) [Example 45, (E)-2-(8-trifluoromethyl-3,4-dihydrobenzo[b]oxepin-5(2H)-ylidene)-N-(6,7,8,9-tetrahydro-5H-cyclohepta[b]pyridin-8-yl)acetamide]",B (compounds having an A2 value of 100 nM or more are represented by B)
21,"O=C(/C=C1\CCOc2cc(OC(F)(F)F)ccc21)Nc1cccc2c1CC(O)CC2 (centres unmarked) [Example 210, (E)-2-(7-trifluoromethoxy-chroman-4-ylidene)-N-(7-hydroxy-5,6,7,8-tetrahydronaphthalen-1-yl)acetamide]",A (compounds of the present invention having an A2 value of less than 100 nM are represented by A)
22,"O=C(/C=C1\CCCOc2cc(C(F)(F)F)ccc21)Nc1nc(-c2ccccc2)cs1 [Example 47, (E)-2-(8-trifluoromethyl-3,4-dihydrobenzo[b]oxepin-5(2H)-ylidene)-N-(4-phenylthiazolo-2-yl)acetamide]",B (compounds having an A2 value of 100 nM or more are represented by B)
23,"O=C(/C=C1\CCOc2cc(C(F)(F)F)c(F)cc21)Nc1cccc2c1CC(O)CN2 (centres unmarked) [Example 215, (E)-2-(6-fluoro-7-trifluoromethyl-chroman-4-ylidene)-N-(3-hydroxy-1,2,3,4-tetrahydroquinolin-5-yl)acetamide]",A (compounds of the present invention having an A2 value of less than 100 nM are represented by A)
24,"CC(C)CCC(=O)N1CC/C(=C\C(=O)Nc2cccc3c2CC(O)CC3)c2ccc(C(F)(F)F)cc21 (centres unmarked) [Example 86, (E)-2-(1-(4-methylpentanoyl)-7-trifluoromethyl-2,3-dihydroquinolin-4(1H)-ylidene)-N-(7-hydroxy-5,6,7,8-tetrahydronaphthalen-1-yl)acetamide]",A (compounds of the present invention having an A2 value of less than 100 nM are represented by A)
25,O=C(/C=C1\CCCOc2cc(C(F)(F)F)ccc21)Nc1ccc2c(ccn2CCO)c1 [Example 164],A (compounds of the present invention having an A2 value of less than 100 nM are represented by A)
26,"CC(C)CC(=O)N1CC/C(=C\C(=O)Nc2cccc3c2CC(O)CC3)c2ccc(C(F)(F)F)cc21 (centres unmarked) [Example 87, (E)-2-(1-(3-methylbutanoyl)-7-trifluoromethyl-2,3-dihydroquinolin-4(1H)-ylidene)-N-(7-hydroxy-5,6,7,8-tetrahydronaphthalen-1-yl)acetamide]",A (compounds of the present invention having an A2 value of less than 100 nM are represented by A)
